Laboratory results reported in patent publication US11292767B2, “Heterocyclic inhibitors of MCT4” (Vettore, LLC, priority 2016, dated 2022).

Tests used:
MCT1 = MCT1 (Homo sapiens (Human), UniProt P53985); test: Assay 4: MCT1-mediated lactate transport in BT20 breast cancer cells; format: cell-based; settings: lactate transport (Table 27)
Description: Preparing BCECF-Loaded Cells
10 µL of a 30 mM DMSO stock of BCECF-AM ester (Life Technologies) is added and the cells are incubated at 37° C. for 5 min. The cells are pelleted (300 g, 5 min), washed once with 1 mL Tyrode's Solution, pH 7.4, re-pelleted (300 g, 5 min), and resuspended in 1 mL Tyrode's Solution, pH 7.4.
Assay 4: MCT1-Mediated Lactate Transport in BT20 Breast Cancer Cells.
Preparation of BCECF loaded cells are as described for Assay 1. Lactate transport assay is as described for Assay 1, except 10 mM L-lactate (rather than 50 mM) is added.

[1] = Metabolic stability in human liver microsomes (in vitro t1/2); format: in vitro ADME; settings: human liver microsomes 0.5 mg/mL, 2 μM compound; for Human microsome % 60 min: % remaining at 60 min
Description: (§1) Metabolic Stability Assays The following are assays that may be used to evaluate the metabolic stability of compounds of Formula (I) in human, rat, or mouse microsomes. The assays follow a common procedure recited below. 1. […] Two separated experiments were performed as follows. a) With NADPH: 10 μL of 20 mg/mL liver microsomes and 40 μL of 10 mM NADPH were added to the incubations. […] The final concentration of microsomes was 0.5 mg/mL. 3. The reaction was started with the addition of 4 μL of 200 μM control compound or test compound solutions. Verapamil was used as positive control in this study. The final concentration of test compound or control compound was 2 μM. 4. Aliquots of 50 μL were taken from the reaction solution at 0, 15, 30, 45 and 60 min. […] Samples were centrifuged at 3,220 g for 40 minutes. A 90 μL aliquot of the supernatant was mixed with 90 μL of ultra-pure H2O and then used for LC-MS/MS analysis. 5. Data analysis. All calculations were carried out using Microsoft Excel. Peak areas were determined from extracted ion chromatograms. The slope value, k, was determined by linear regression of the natural logarithm of the remaining percentage of the parent drug vs. incubation time curve. The in vitro half-life (in vitro t1/2) was determined from the slope value: in vitro t1/2=−(0.693)/k.

[2] = Metabolic stability in mouse liver microsomes (in vitro t1/2); format: in vitro ADME; settings: mouse liver microsomes 0.5 mg/mL, 2 μM compound; for Mouse microsome % 60 min: % remaining at 60 min
Description: as §1

[3] = Metabolic stability in rat liver microsomes (in vitro t1/2); format: in vitro ADME; settings: rat liver microsomes 0.5 mg/mL, 2 μM compound; for Rat microsome % 60 min: % remaining at 60 min
Description: as §1

[4] = Pharmacokinetic assay in mouse (IV 3 mg/kg, PO 10 mg/kg); format: in vivo; settings: male, CD1, mouse, plasma, read-out: Mouse F (%)
From the text: (§2) Pharmacokinetic Assays in Mouse and Rat
(§3) The following are assays that may be used to evaluate the pharmacokinetic properties of Formula (I) in mouse or rat. The assays follow a common procedure recited below.
(§4) 1. […] For PO (oral gavage), DMSO/PEG400 (10:90). Formulations freshly prepared on the day of dosing or prior to dosing. Storage at room temperature.
(§5) 2. Test Species: For Mouse: Male CD1 strain, approximately 6-8 weeks in age, approximately 20-30 g. For Rat: Male Sprague-Dawley strain, approximately 6-8 weeks in age, approximately 200-300 g.
(§6) 3. Dose Level: For IV, 3 mg/kg. For PO, 10 mg/kg.
(§7) 4. Number of animals: 3 per assay.
(§8) 5. PK time points: For IV (plasma): 5 min, 15 min, 1, 2, 4, 6, 8, 24 h post dose. For PO (plasma): 15 min, 30 min, 1, 2, 4, 6, 8, 24 h post dose.
(§9) 6. Blood Sample Collection and Processing. Blood was collected (˜0.2 mL per time point) from jugular vein. Blood of each sample was transferred into plastic micro centrifuge tubes containing anticoagulant of EDTA-K2. Blood samples were centrifuged at 2,000 g for 5 minutes at 4° C. to obtain plasma.
(§10) 7. Samples Analysis: Plasma samples were analyzed using LC/MS/MS method, and pharmacokinetic parameters (half-life: t1/2; oral bioavailability: F; volume of distribution: Vss).

[5] = Pharmacokinetic assay in rat (IV 3 mg/kg, PO 10 mg/kg); format: in vivo; settings: male, Sprague-Dawley, plasma, read-out: Rat F (%)
From the text: as §2, §3, §4, §5, §6, §7, §8, §9, §10

CFA-induced arthritis [6] = test: Adjuvant-induced arthritis model in rat: Difference of Weight Bearing test (DWB); format: in vivo; settings: SD rat, PO 3 days post CFA, compared to dexamethasone
CFA-induced arthritis [7] = test: Adjuvant-induced arthritis model in rat: Mechanical Allodynia test (MA); format: in vivo; settings: SD rat, PO 3 days post CFA, compared to dexamethasone

MCT1, sequence (P53985 whole entry): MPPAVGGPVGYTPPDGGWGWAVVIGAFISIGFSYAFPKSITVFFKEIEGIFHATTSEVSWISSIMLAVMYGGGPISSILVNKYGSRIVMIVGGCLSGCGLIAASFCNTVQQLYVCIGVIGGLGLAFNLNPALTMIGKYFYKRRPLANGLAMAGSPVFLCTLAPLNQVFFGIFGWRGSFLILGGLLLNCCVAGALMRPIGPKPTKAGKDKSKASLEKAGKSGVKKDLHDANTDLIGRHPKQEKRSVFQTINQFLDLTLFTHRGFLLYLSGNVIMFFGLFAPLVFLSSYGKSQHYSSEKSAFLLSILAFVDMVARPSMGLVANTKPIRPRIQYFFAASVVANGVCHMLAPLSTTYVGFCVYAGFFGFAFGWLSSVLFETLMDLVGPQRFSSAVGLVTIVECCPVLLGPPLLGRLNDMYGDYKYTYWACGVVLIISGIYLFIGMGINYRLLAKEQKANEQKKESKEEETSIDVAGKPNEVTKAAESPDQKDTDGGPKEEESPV
MCT1, sequence (P35613 140-385 partner): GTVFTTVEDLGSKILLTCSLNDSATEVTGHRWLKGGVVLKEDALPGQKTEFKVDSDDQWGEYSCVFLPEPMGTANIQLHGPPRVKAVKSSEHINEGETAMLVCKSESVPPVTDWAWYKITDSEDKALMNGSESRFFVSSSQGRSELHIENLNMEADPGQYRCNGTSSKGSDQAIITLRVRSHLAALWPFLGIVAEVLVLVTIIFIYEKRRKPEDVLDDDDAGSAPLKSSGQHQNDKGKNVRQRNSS

| IC50 (MCT1) [nM] | bioavailability [4] [%] | bioavailability [5] [%] | SMILES | also measured |
| --- | --- | --- | --- | --- |
| – | 57 | 55 | CCOc1ccccc1Cn1nc(COC(C)(C)C(=O)O)cc1-c1cc(OC)cc(OC)c1 [Example 211, 2-([5-(3,5-Dimethoxyphenyl)-1-[(2-ethoxyphenyl)methyl]-1H-pyrazol-3-yl]-methoxy)-2-methylpropanoic acid] | Human microsome % 60 min [1]: 78%; Rat microsome % 60 min [3]: 57%; Mouse microsome % 60 min [2]: 43% |
| – | 100 | 29 | CCn1ncc2ccc(-c3cc(CO[C@](C)(CC)C(=O)O)nn3Cc3ccccc3Cl)cc21 [Example 220, (2R)-2-([1-[(2-chlorophenyl)methyl]-5-(1-ethyl-1H-indazol-6-yl)-1H-pyrazol-3-yl]methoxy)-2-methylbutanoic acid] | Human microsome t1/2, min ([1]; in vitro t1/2): ∞; Rat microsome % 60 min [3]: 86%; Difference in Weight Bearing, Minimal Efficacious Dose (CFA-induced arthritis [6]): 3 mg/kg; Mechanical Allodynia (Von Frey), Minimal Efficacious Dose (CFA-induced arthritis [7]): 3 mg/kg |
| – | 100 | 94 | CCn1ncc2ccc(-c3cc(COC(C)(C)C(=O)O)nn3-c3ccccc3N3CCC3)cc21 [Example 228, 2-([1-[2-(Azetidin-1-yl)phenyl]-5-(1-ethyl-1H-indazol-6-yl)-1H-pyrazol-3-yl]methoxy)-2-methylpropanoic acid] | Human microsome % 60 min [1]: 71%; Rat microsome % 60 min [3]: 91%; Mouse microsome % 60 min [2]: 96% |
| – | 76 | 76 | CCn1ncc2ccc(-c3cc(CO[C@@](C)(CC)C(=O)O)nn3Cc3ccccc3Cl)cc21 [Example 257, (S)-2-((1-(2-chlorobenzyl)-5-(1-ethyl-1H-indazol-6-yl)-1H-pyrazol-3-yl)methoxy)-2-methylbutanoic acid] | Human microsome % 60 min [1]: 96%; Rat microsome t1/2, min ([3]; in vitro t1/2): ∞; Mouse microsome t1/2, min ([2]; in vitro t1/2): ∞ |
| – | 100 | 100 | CC[C@@](C)(OCc1cc(-c2cccc(OC3CC3)c2)n(-c2ccccc2N2CCC2)n1)C(=O)O [Example 266] | Difference in Weight Bearing, Minimal Efficacious Dose (CFA-induced arthritis [6]): 3 mg/kg; Mechanical Allodynia (Von Frey), Minimal Efficacious Dose (CFA-induced arthritis [7]): 3 mg/kg |
| – | 64 | 54 | CCCn1ncc2ccc(-c3cc(CO[C@](C)(CC)C(=O)O)nn3-c3ccccc3N3CCC3)cc21 [Example 267, (2R)-2-([1-[2-(azetidin-1-yl)phenyl]-5-(1-propyl-1H-indazol-6-yl)-1H-pyrazol-3-yl]methoxy)-2-methylbutanoic acid] | Difference in Weight Bearing, Minimal Efficacious Dose (CFA-induced arthritis [6]): 3 mg/kg; Mechanical Allodynia (Von Frey), Minimal Efficacious Dose (CFA-induced arthritis [7]): 3 mg/kg |
| – | 77 | 57 | CCn1ncc2ccc(-c3cc(CO[C@](C)(CC)C(=O)O)nn3-c3ccccc3N3CCCC3)cc21 [Example 268, (2R)-2-([5-(1-ethyl-1H-indazol-6-yl)-1-[2-(pyrrolidin-1-yl)phenyl]-1H-pyrazol-3-yl]methoxy)-2-methylbutanoic acid] | Difference in Weight Bearing, Minimal Efficacious Dose (CFA-induced arthritis [6]): 1 mg/kg; Mechanical Allodynia (Von Frey), Minimal Efficacious Dose (CFA-induced arthritis [7]): 1 mg/kg |
| – | 100 | – | CCn1ncc2ccc(-c3cc(CO[C@](C)(CC)C(=O)O)nn3-c3ccccc3N3CCC3)cc21 [Example 269, (2R)-2-([1-[2-(Azetidin-1-yl)phenyl]-5-(1-ethyl-1H-indazol-6-yl)-1H-pyrazol-3-yl]methoxy)-2-methylbutanoic acid] | – |

The remaining lines, values behind:

| SMILES | IC50 (MCT1) [nM] | bioavailability [4] [%] | bioavailability [5] [%] | also measured |
| --- | --- | --- | --- | --- |
| CC(C)(OCc1cc(-c2cccc(OCC(F)(F)F)c2)n(Cc2ccccc2Cl)n1)C(=O)O [Example 43, 2-([1-[(2-Chlorophenyl)methyl]-5-[3-(2,2,2-trifluoroethoxy)phenyl]1H-pyrazol-3-yl]methoxy)-2-methylpropanoic acid] | > 33000 | – | – | – |
| CC(C)(OCc1cc(-c2cscn2)n(Cc2ccccc2Cl)n1)C(=O)O [Example 47, 2-([1-[(2-Chlorophenyl)methyl]-5-(1,3-thiazol-4-yl)-1H-pyrazol-3-yl]methoxy)-2-methylpropionic acid] | > 100000 | – | – | – |
| COc1cccc(-c2cc(COC(C)(C)C(=O)O)nn2Cc2ccccc2)c1 [Example 53, 2-([1-benzyl-5-(3-methoxyphenyl)-1H-pyrazol-3-yl]methoxy)-2-methyl-propanoic acid] | > 100000 | – | – | – |
| COc1cccc(-c2cc(COC(C)(C)C(=O)O)nn2-c2ccccc2Cl)c1 [Example 57, 2-([1-(2-chlorophenyl)-5-(3-methoxyphenyl)-1H-pyrazol-3-yl]methoxy)-2-methylpropanoic acid] | > 133000 | – | – | Human microsome % 60 min [1]: 80%; Mouse microsome % 60 min [2]: 100% |
| CC(C)C(=O)Nc1cccc(-c2cc(COC(C)(C)C(=O)O)nn2Cc2ccccc2Cl)c1 [Example 69, 2-([1-[(2-Chlorophenyl)methyl]-5-[3-(2-methylpropanamido)phenyl]-1H-pyrazol-3-yl]methoxy)-2-methylpropanoic acid] | > 100000 | – | – | – |
| CC(C)(OCc1cc(-c2cccc(S(C)(=O)=O)c2)n(Cc2ccccc2Cl)n1)C(=O)O [Example 70, 2-([1-[(2-Chlorophenyl)methyl]-5-(3-methanesulfonylphenyl)-1H-pyrazol-3-yl]methoxy)-2-methylpropanoic acid] | > 100000 | – | – | – |
| CC(C)CNc1cccc(-c2cc(COC(C)(C)C(=O)O)nn2Cc2ccccc2Cl)c1 [Example 73, 2-([1-[(2-chlorophenyl)methyl]-5-[3-[(2-methylpropyl)amino]phenyl]-1H-pyrazol-3-yl]methoxy)-2-methyl-propanoic acid] | > 11000 | – | – | – |
| CC(C)NC(=O)c1cccc(-c2cc(COC(C)(C)C(=O)O)nn2Cc2ccccc2Cl)c1 [Example 74, 2-([1-[(2-Chlorophenyl)methyl]-5-[3-[(propan-2-yl)carbamoyl]phenyl]-1H-pyrazol-3-yl]methoxy)-2-methyl-propanoic acid] | > 100000 | – | – | – |
| CC(C)(OCc1cc(Nc2ccccc2)n(Cc2ccccc2Cl)n1)C(=O)O [Example 75, 2-([1-[(2-chlorophenyl)methyl]-5-(phenylamino)-1H-pyrazol-3-yl]methoxy)-2-methylpropanoic Acid] | > 100000 | – | – | – |
| Cn1ncc2cccc(-n3nc(COC(C)(C)C(=O)O)cc3-c3cccc(OCC(C)(C)C)c3)c21 [Example 167, 2-([5-[3-(2,2-dimethylpropoxy)phenyl]-1-(1-methyl-1H-indazol-7-yl)-1H-pyrazol-3-yl]methoxy)-2-methyl-propanoic acid] | – | 24 | 72 | Human microsome % 60 min [1]: 84%; Rat microsome % 60 min [3]: 72%; Mouse microsome % 60 min [2]: 97% |
| CC(C)(OCc1cc(-c2cccc(OC3CCC3)c2)n(-c2ccccc2N2CCC2)n1)C(=O)O [Example 260, 2-([1-[2-(Azetidin-1-yl)phenyl]-5-(3-cyclobutoxyphenyl)-1H-pyrazol-3-yl]methoxy)-2-methylpropanoic acid] | – | 86 | 85 | Difference in Weight Bearing, Minimal Efficacious Dose (CFA-induced arthritis [6]): 1 mg/kg; Mechanical Allodynia (Von Frey), Minimal Efficacious Dose (CFA-induced arthritis [7]): 1 mg/kg |
